From patent US9415047B2, “Use of benzo five-membered nitrogen heterocyclic piperazine or piperidine derivatives” (Liaoning Emmy Biological Pharmaceutical Co., Ltd., priority 2012, dated 2016)

Legend:
[1] = tested on: AD constricted rabbit aorta; experiment: Relaxing effects on vascular smooth muscle constricted by adrenaline hydrochloride (AD) in vitro; conditions: relaxation of rabbit aorta constricted by adrenaline (10^−5 mol/L), mean±SEM, n=5
Outline: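 Rabbit aortic strips in K-H solution precontracted with adrenaline hydrochloride (10^−5 mol/L) after a reproducible second contraction; compounds added cumulatively over ranges from 1×10^−10 up to 1×10^−2 mol/L depending on the compound series. Relaxation expressed as % of maximal relaxation versus −log concentration, mean±SEM, n=5.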

α1 receptor = experiment: Antagonism of accumulative constriction of rabbit aorta by noradrenaline (α-receptor agonist)
Protocol: Then samples were flushed with K-H solution repeatedly, K-H solution was changed for every 20 min, and the samples were balanced for 60 min. After baseline recovered to be stable, doxazosin (10^−7 mol/L) was added, and noradrenaline (NA) (10^−8-6×10^−5 mol/L) was added by using the same method 15 min later.
NA was also added by using the same method 15 min later.

[2] = tested on: high kalium concentration constricted rabbit aorta; experiment: Relaxing effects on vascular smooth muscle constricted by high kalium concentration in vitro; conditions: relaxation of rabbit aorta constricted by high kalium solution (K+ 60 mmol/L), mean±SEM, n=5
Outline: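 Rabbit aortic rings pre-challenged with adrenaline (10^−5 mol/L), washed and re-equilibrated 60 min in K-H solution, then constricted with high-K+ solution; compounds added cumulatively over 1×10^−10–1×10^−2 mol/L depending on series. Relaxation expressed as % of maximal relaxation vs −log concentration; mean±SEM, n=5.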

Calcium Channel (Ca^2+) = experiment: Antagonism of accumulative constriction of rabbit aorta by CaCl2; conditions: calcium free high kalium depolarization
Protocol: (§1) Rabbits were hit to be dizzy, with thoracic cavity quickly cut open, descending aorta exposed, connective tissues and surrounding fatty tissues (for hydroxytryptamine receptor antagonism test, endothelia should be removed with smooth stainless steel rod) removed, the aorta was cut into 3-5 mm vascular rings which were penetrated together with a steel wire with one end fixed on ventilation hook, another end on pressure tonotransducer. The aorta rings were put into a bath tube with 20 ml of nutritional solution, and the tension changes were recorded by using the recorder. The temperature of bath tube was maintained at 37±0.5° C., and mixed gas (95% O2+5% CO2) was ventilated at a rate of I-2 bubbles/second. The initial load of the sample was 1.5 g, nutritional solution was changed for every 20 min. The sample was balanced for 2 hours, and the experiment would be started when baseline became stable.
After sample tension became stable, calcium K-H solution was used to flush the sample for 3 times, and incubated with calcium free K-H solution for 40 min. Calcium free high kalium solution was added into the sample for depolarization for 20 min, then CaCl2 (10^−6-10^−2 mol/L) was added into bath tube till maximal response was achieved, and then waveform was recorded. Then K-H solution was used to flush the sample repeatedly, the K-H solution was changed for every 20 min, and the sample was balanced for 60 min. […]
After sample tension became stable, calcium K-H solution was used to flush the sample for 3 times, and incubated with calcium free K-H solution for 40 min. Calcium free high kalium solution was added into the sample for depolarization for 20 min, then CaCl2 (10^−6-10^−2 mol/L) was added into bath tube till maximal response was achieved, and then waveform was recorded. […] Calcium free high kalium solution was added into the sample for depolarization for 20 min, then amlodipine (10^−7 mol/L) was added into bath tube, which was incubated for 15 min, then CaCl2 (10^−6-10^−2 mol/L) was added by using the same method till maximal response was achieved, and then waveform was recorded. […]

5-HT2A receptor = 5-HT2A receptor (Oryctolagus cuniculus, UniProt G1SYA7); experiment: Antagonism of accumulative constriction of rabbit aorta by 5-HT
5-HT2A receptor, sequence (G1SYA7 1-469): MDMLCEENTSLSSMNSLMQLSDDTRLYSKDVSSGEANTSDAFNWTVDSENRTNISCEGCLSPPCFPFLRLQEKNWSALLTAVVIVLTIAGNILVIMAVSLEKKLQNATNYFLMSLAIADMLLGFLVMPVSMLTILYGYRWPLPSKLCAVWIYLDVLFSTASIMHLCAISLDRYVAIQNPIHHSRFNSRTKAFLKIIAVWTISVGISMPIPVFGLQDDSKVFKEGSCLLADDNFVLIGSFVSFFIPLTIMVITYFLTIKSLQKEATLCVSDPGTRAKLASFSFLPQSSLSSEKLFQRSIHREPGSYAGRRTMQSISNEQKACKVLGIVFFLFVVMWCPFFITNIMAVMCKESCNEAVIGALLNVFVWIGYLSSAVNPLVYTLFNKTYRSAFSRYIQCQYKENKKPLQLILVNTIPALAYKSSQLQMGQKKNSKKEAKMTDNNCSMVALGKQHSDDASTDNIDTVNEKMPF
Protocol: as §1
After sample tension became stable, a piece of waveform was recorded, 5-HT (10^−7-3×10^−4 mol/L) was added into the bath tube until maximal response, then waveform was recorded. […] 5-HT was also added by using the same method 20 min later. The maximal response was considered 100%, 5-HT constriction percentage was used as Y axis, negative logarithms of different concentrations of 5-HT were used as X axis to draw dose effective curve.
After sample tension became stable, a piece of waveform was recorded, 5-HT (10^−8-10^−3 mol/L) was added into the bath tube until maximal response, then waveform was recorded. […] 5-HT was also added by using the same method 20 min later. The maximal response was considered 100%, 5-HT constriction percentage was used as Y axis, negative logarithms of different concentrations of 5-HT were used as X axis to draw dose effective curve (data were expressed in mean±SEM ( ? ), *P<0.05, **P<0.01, n=7).
After sample tension became stable, a piece of waveform was recorded, 5-HT (10^−8-3×10^−4 mol/L) was added into the bath tube until maximal response, then waveform was recorded. […] 5-HT was also added by using the same method 20 min later. […]

Kunming mice = experiment: Marrow micronucleus test on mice; format: in vivo; conditions: dosed 4 days, test on day 5, II-2 120, II-85 74, cyclophosphane 60 mg/kg/day
Protocol: Ten Kunming mice (Experimental Animal Center, China Medical University), half male and half female, were used. Compound II-2 was administered via gastric gavage at 120 mg/kg/day, and II-85 was administered to 74 mg/kg/day. The drug was administered for 4 days continuously. Marrow micronucleus test was performed on day 5.
Mice in positive control group were administered cyclophosphane at 60 mg/kg/day. Mice in negative control group were administered normal saline at 0.1 ml/10 g/day. The drug was administered for 4 days continuously. Marrow micronucleus test was performed on day 5.
The mice were killed by snapping neck, and then femur and sternum were excised, with blood and muscles removed, epiphysis cut off. Then marrow from sternum was squeezed to clean glassslide with bovine serum by using a pair of hemostatic forceps, or marrow on femur was flushed directly with bovine serum onto clean glassslide. Then the substance on glassslide were mixed well and smeared. Then the prepared and dried marrow smears were put into staining tank with methanol, fixed for 15 min, picked out to dry in the open air. After marrow smears were dried, it would be stained in freshly prepared Giemsa solution (1 volume of Giemsa stock solution and 9 volumes of pH 6.8 phosphate buffer) for 10 min, staining solution was flushed away with little stream. Then the smear was dried in the open air and observed under a microscope.

[3] = tested on: NA constricted rabbit aorta; experiment: Relaxing effects on vascular smooth muscle constricted by noradrenaline (NA) in vitro; conditions: Oryctolagus cuniculus; relaxation of rabbit aorta constricted by noradrenaline (10^−5 mol/L); mean±SEM, n=5
Protocol: Adrenaline hydrochloride (AD) (10^−5 mol/L) was added into a bath tube to induce constriction, when maximal constriction was achieved, the sample was completely flushed, K-H solution was changed for every 20 min. Contents in the tube was balanced for 60 min, when baseline recovered to be stable, noradrenaline bitartrate (NA) (10^−5 mol/L) was added to induce constriction. When the later maximal constriction response was basically consistent with the former one, the prepared compound solutions were subsequently added, including compound II-84 to II-123 solutions (1×10^−10-1×10^−2 mol/L), compound II-124 to II-157 solutions (1×10^−10-1×10^−3 mol/L), to record the waveforms. Relaxing percentage of the compound was used as Y axis, maximal relaxation response was 100%, negative logarithm of different concentration was used as X axis, to draw dose effect curve (expressed in mean±SEM ( ? ), n=5).

Row | SMILES | −logEC50 [1] | EC50 [3] [µM] | −logEC50 [2] | further results
1 | FC(F)(F)c1cccc(N2CCN(CCCCn3nnc4ccccc43)CC2)c1 [II-31, 1-(4-(4-(3-trifluoromethylphenyl)piperazine-1-yl)butyl)-1H-benzotriazole] | – | – | – | EC50 ([1]; Oryctolagus cuniculus): 0.646 µM; PA2 value to resist constriction of rabbit aorta by NA (α1 receptor): 6.02±0.13; EC50 ([2]; Oryctolagus cuniculus): 2.82 µM; PA2 value to resist constriction of rabbit aorta by CaCl2 (Calcium Channel (Ca^2+)): 6.56±0.032; Kb (5-HT2A receptor): 0.188 µM
2 | O=P1(N(CCCl)CCCl)NCCCO1 (stereo not drawn) [cyclophosphane, reference compound] | – | – | – | micronuclei cells in 1000 polychromatic erythrocytes (Kunming mice): 12%
3 | FC(F)(F)c1cccc(C2CCN(CCCOn3cnc4ccccc43)CC2)c1 [II-117, N-(4-(1H-benzimidazole-1-yl)propoxyl)-4-(3-trifluoromethylphenyl)piperidine] | 5.31 ± 0.06 | 7.08 | 4.17 ± 0.06 | –
4 | Fc1cccc(C2CCN(CCCCn3cnc4ccccc43)CC2)c1 [II-111, N-(4-(1H-benzimidazoyl-1-yl)butyl)-4-(3-fluorophenyl)piperidine] | 4.89 ± 0.02 | 21.4 | 3.44 ± 0.02 | –
5 | FC(F)(F)c1cccc(C2CCN(CCCOn3nnc4ccccc43)CC2)c1 [II-116, N-(4-(1H-benzotriazole-1-yl)propoxyl)-4-(3-trifluoromethylphenyl)piperidine] | 5.56 ± 0.05 | 4.37 | 4.22 ± 0.05 | –
